{"source": "patent US7790164B2", "about": "“Fragments of antibodies to epidermal growth factor receptor and methods of their use” (Van Andel Research Institute, priority 2007, dated 2010)", "origin": "cited, not measured here", "test_system": "A431 cells", "settings": "Ojima et al. J Med Chem 2002, read-out: IC50 of A431 to paclitaxel; cited from earlier work", "note": "pIC50: −log10 of the molar value.", "data": [{"smiles": "CC(=O)O[C@H]1C(=O)[C@@]2(C)[C@H]([C@H](OC(=O)c3ccccc3)[C@]3(O)C[C@H](OC(=O)[C@H](O)[C@@H](NC(=O)c4ccccc4)c4ccccc4)C(C)=C1C3(C)C)[C@]1(OC(C)=O)CO[C@@H]1C[C@@H]2O", "note": "[paclitaxel]", "values": [{"measurement": "pIC50", "value": "~10.05"}]}]}
